Test results: patent US20250049970A1, “DLL3 TARGETING PEPTIDES AND CONSTRUCTS THEREOF” (MARIANA ONCOLOGY INC., priority 2023, published 2025)
Where a SMILES comes first, the peptide text is derived from it. Bridges are numbered along the chain shown (N, C = ends). [ ]: non-standard residue; d: D form. The star is where a group is joined. DOTA = O=C(O)CN1CCN(CC(=O)O)CCN(CC(=O)*)CCN(CC(=O)O)CC1; X1 = O=CCN1CCN(CC(=O)O)CCN(CC(=O)*)CCN(CC(=O)O)CC1; 2Nal = N[C@@H](Cc1ccc2ccccc2c1)C(=O)O; Ile(3-Me) = CCC(C)(C)[C@H](N)C(=O)O; tBuAla = CC(C)(C)C[C@H](N)C(=O)O; Chg = N[C@H](C(=O)O)C1CCCCC1; Tle = CC(C)(C)[C@H](N)C(=O)O

T1: DLL3 (Homo sapiens, UniProt Q9NYJ7)
T1 sequence (Q9NYJ7 27-618): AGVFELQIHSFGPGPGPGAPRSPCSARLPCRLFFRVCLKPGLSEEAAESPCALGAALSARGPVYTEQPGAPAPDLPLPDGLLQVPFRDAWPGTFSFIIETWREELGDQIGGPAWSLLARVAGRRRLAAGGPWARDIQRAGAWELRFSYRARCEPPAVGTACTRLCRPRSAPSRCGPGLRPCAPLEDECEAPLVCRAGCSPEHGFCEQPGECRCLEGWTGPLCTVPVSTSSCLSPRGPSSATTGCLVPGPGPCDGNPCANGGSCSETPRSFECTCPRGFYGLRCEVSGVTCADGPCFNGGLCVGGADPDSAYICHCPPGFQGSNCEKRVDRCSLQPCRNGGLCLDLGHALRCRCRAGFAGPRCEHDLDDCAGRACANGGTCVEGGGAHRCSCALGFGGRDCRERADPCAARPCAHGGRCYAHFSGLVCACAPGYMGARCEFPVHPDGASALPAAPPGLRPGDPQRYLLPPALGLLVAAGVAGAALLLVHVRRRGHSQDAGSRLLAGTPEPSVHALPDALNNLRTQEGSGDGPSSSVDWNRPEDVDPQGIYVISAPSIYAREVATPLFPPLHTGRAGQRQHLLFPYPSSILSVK

T2: DLL3 on CT26.DLL3 cells (Homo sapiens (Human), UniProt Q9NYJ7 27-618)
T2 construct: CT26.DLL3 are engineered cells to express DLL3
T2 sequence: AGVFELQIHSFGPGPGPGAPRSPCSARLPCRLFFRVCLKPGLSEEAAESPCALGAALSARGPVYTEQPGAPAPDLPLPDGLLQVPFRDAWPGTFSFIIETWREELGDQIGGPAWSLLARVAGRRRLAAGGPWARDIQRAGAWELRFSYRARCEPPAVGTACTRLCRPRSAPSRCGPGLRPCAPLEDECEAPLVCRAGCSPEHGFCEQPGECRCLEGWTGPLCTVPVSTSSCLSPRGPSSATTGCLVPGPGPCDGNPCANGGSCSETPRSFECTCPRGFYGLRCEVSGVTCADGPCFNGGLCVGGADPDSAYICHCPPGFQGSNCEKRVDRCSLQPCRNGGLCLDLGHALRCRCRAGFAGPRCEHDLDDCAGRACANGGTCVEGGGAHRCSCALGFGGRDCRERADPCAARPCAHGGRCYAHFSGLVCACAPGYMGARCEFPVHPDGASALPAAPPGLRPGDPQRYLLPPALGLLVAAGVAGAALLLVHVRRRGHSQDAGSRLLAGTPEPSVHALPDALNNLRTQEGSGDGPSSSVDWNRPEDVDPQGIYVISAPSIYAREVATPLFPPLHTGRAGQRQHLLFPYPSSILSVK


Columns and labels:
[1] = test system: nude mice bearing SHP-77 tumors; experiment: Ex vivo biodistribution of radiolabeled peptides (% IA/g) in nude mice bearing SHP-77 tumors; settings: [177Lu]Lu labelling, 24 hours post-injection, intravenous
Outline: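 [177Lu]Lu-peptides were given as an IV tail-vein bolus once tumors reached 200-400 mm^3. Injected activity was set per mouse from syringe dose-calibrator readings. At set time points, tissues were weighed and gamma-counted, and counts were decay-corrected to injection and expressed as % IA/g.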

CT26.DLL3 cells [2] = experiment: Internalization of [177Lu]Lu-labeled peptide, CT26.DLL3 cells; type: cell-based; settings: 1 h, 37° C.
Outline: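 [177Lu]Lu-chelator-peptides labelled at pH ~5, 80 °C, checked by RP-HPLC, formulated in 1% PBSA. Detached cells (5-25 million/condition) counted as bound fraction, stripped twice with 50 mM glycine pH 2.5 for 3 min, lysed in 0.3 M NaOH and gamma-counted as internalized fraction; values binned as ≤25, 25-50, >50 %.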

DLL3 = biological target: T1, DLL3; experiment: SPR KD, biotinylated human DLL3 on streptavidin chip (Table 8); parameters: biotin (biotinylated); settings: biotinylated human DLL3 on streptavidin sensor chip, 25° C., 1:1 binding model; read-out: SPR KD
Text: Biotinylated target ligand human DLL3 was immobilized on a streptavidin sensor chip. A reference surface was set up for nonspecific binding and refractive index changes. […] Sensorgram curves were fitted with 1:1 binding model, and affinity and kinetic parameters were obtained using Biacore Insight evaluation 4.0. software.

CT26.DLL3 cells [3] = experiment: Cell binding (total uptake) of [177Lu]Lu-labeled peptide, CT26.DLL3 cells; type: cell-based; settings: 1 h, 37° C.
Outline: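 [177Lu]Lu-labelled peptide was prepared at pH ~5 and 80 °C, with purity checked by RP-HPLC, then formulated in 1% PBSA. CT26.DLL3 cells (5-25 million per condition) were incubated with 0.8 μCi for 1 h at 37 °C. After cold PBS/BSA washes, bound and unbound fractions were gamma-counted and uptake was reported as a percentage band.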

SHP-77 cells [4] = experiment: Cell binding (total uptake) of [177Lu]Lu-labeled peptide, SHP-77 cells; type: cell-based; settings: 1 h, 37° C.
Method: (§1) [^177Lu]LuCl3 was received from venders in HCl solution. For every mCi of [^177Lu]LuCl3 added to the reaction vial (1.5 mL Eppendorf vial), ammonium acetate buffer (0.2 M, pH 4.9, 100 μL, containing 1% w/v ascorbic acid and 6% v/v ethanol) and peptide conjugate (1 nmol; also referred to herein as “chelator-peptides”) was added. The pH of the solution was determined to be approximately 5 by using pH strips. The reaction vial was incubated at 80° C., 700 RPM for 17-20 minutes. A sample from the reaction was analyzed by RP-HPLC using an Agilent Infinity II 1260 HPLC to determine reaction completion and radiochemical purity of [^177Lu]Lu-chelator-peptides. HPLC conditions: Waters XBridge BEH C18 Column, 130A, 3.5 μm, 4.6 mm×250 mm; mobile phase: Solvent A=water (with 0.1% formic acid), solvent B=acetonitrile (with 0.1% formic acid). Gradients: 25-45% B in 10 minutes, 45-65% B in 12 minutes, 65-90% in 6 minutes at a flow rate of 0.5 mL/minutes Required amounts of the product was formulated in 1% PBSA for cell studies.
(§2) The study was conducted using SHP-77, CT26.WT, CT26.DLL3, and HEK293.DLL3 cells (Table 9)
(§3) Adherent cell studies: The cells were cultured in appropriate culture media (20 mL) in tissue culture treated T150 flasks at 37° C. and 5% C02. Adherent cells were detached (60-70% confluent) using 5 mL Versene at 37° C. for 3 minutes. After confirming the viability using countess and count of detached cells using Trypan blue, the cells were centrifuged at 4° C. for 5 minutes (1,000 rpm). The cell pellet obtained was washed once with PBS and resuspended in 1% PBSA to obtain the desired cell concentration (5-25 million cells/mL).
(§4) Suspension cell studies: The cells were cultured in appropriate culture media (20 mL) in tissue culture treated T150 flasks at 37° C. and 5% CO2. After confirming the viability and count of detached cells using Trypan blue, the cells were centrifuged at 4° C. for 5 minutes (1,000 rpm). The cell pellet obtained was washed once with PBS and resuspended in 1% PBSA to obtain the desired cell concentration (5-25 million cells/mL).
(§5) Cell numbers used for the assay were in the range of 5 million cells/condition-25 million cells/condition.
Total uptake: Cells were incubated with 300 μL (0.8 μCi) of the incubation buffer (containing radiolabeled peptide [^177Lu]Lu-test peptide) for 1 hour at 37° C. (Table 10). Post incubation, the cells were pelleted and washed 2 times using cold PBS+1% BSA. The supernatant and washes were combined and counted together as “unbound fraction” in a gamma counter. The cells were then resuspended in 300 μL of 1% PBS+1% BSA and counted in the gamma counter as “bound fraction”.
(§6) In these Tables, “A” represents % s ≤25; “B” represents 25 <% ≤50; “C” represents % >50.

SHP-77 cells [5] = experiment: Internalization of [177Lu]Lu-labeled peptide, SHP-77 cells; type: cell-based; settings: 1 h, 37° C.
Method: as §1, §2, §3, §4, §5
Internalization: The resuspended cells in 300 μL of 1% PBSA and counted in the gamma counter as “bound fraction” were collected in 1.5 mL Eppendorf tube and pelleted. The pelleted cells were incubated with 300 μL of 50 mM Glycine pH=2.5 for 3 minutes and then pelleted discarding the supernatant. This process was repeated one more time. The pelleted cells were washed with 300 μL of cold 1% PBSA and then resuspended in 300 μl 0.3M NaOH. This was counted in the gamma counter as “internalized fraction”.
as §6

DLL3 on CT26.DLL3 cells = biological target: T2, DLL3 on CT26.DLL3 cells; experiment: [177Lu]Lu-labelled peptide on CT26.DLL3 cells, 1 h 37 C, gamma counter; A = %<=25
Method: as §3
Total uptake: Cells were incubated with 300 μL (0.8 μCi) of the incubation buffer (containing radiolabeled peptide [¹⁷⁷Lu]Lu-test peptide) for 1 hour at 37° C. (Table 10). Post incubation, the cells were pelleted and washed 2 times using cold PBS+1% BSA. The supernatant and washes were combined and counted together as “unbound fraction” in a gamma counter. The cells were then resuspended in 300 μL of 1% PBS+1% BSA and counted in the gamma counter as “bound fraction”.

Molecule	kidney uptake (% IA/g) [1]	tumor uptake (% IA/g) [1]	% Internalization (out of bound fraction) (CT26.DLL3 cells [2])	Kd (DLL3) [nM]	% Binding (CT26.DLL3 cells [3])	% Binding (SHP-77 cells [4])	% Internalization (out of bound fraction) (SHP-77 cells [5])	% Binding (DLL3 on CT26.DLL3 cells) [%]
CC(=O)N[C@@H](Cc1c[nH]c2ccccc12)C(=O)N[C@H](C(=O)N[C@@H](CC(C)(C)C)C(=O)N[C@H]1CSSC[C@@H](C(=O)N[C@@H](Cc2c[nH]c3ccccc23)C(=O)N2CCC[C@H]2C(N)=O)NC(=O)[C@H](CC(=O)O)NC(=O)[C@H](CCCCNC(=O)CN2CCN(CC(=O)O)CCN(CC=O)CCN(CC(=O)O)CC2)NC(=O)[C@H](Cc2ccc3ccccc3c2)NC(=O)[C@H](CC(N)=O)NC(=O)[C@H](CC(N)=O)NC1=O)[C@@H](C)O [compound 316, Ac-W-T-(t-Bu-Ala)-C(3)-N-N-(2Nal)-Lys(DOTA)-D-C(3)-W-P-CONH2] (Ac-WT[tBuAla]CNN[2Nal]K(X1)DCWP-NH2; disulfide 4-10)	D (“D” represents % IA/g > 10 in kidney)	A (“A” represents 0 < % IA/g ≤ 5 in tumor)	B (25 <% ≤50)	< 1	A (% s ≤25)	B (25 <% ≤50)	C (% >50)	
CC(=O)N[C@@H](Cc1c[nH]c2ccccc12)C(=O)N[C@H](C(=O)N[C@H](C(=O)N[C@H]1CSSC[C@@H](C(=O)N[C@@H](Cc2c[nH]c3ccccc23)C(=O)N2CCC[C@H]2C(N)=O)NC(=O)[C@H](CC(=O)O)NC(=O)[C@H](CCCCNC(=O)CN2CCN(CC(=O)O)CCN(CC(=O)O)CCN(CC(=O)O)CC2)NC(=O)[C@H](Cc2ccc3ccccc3c2)NC(=O)[C@H](CC(N)=O)NC(=O)[C@H](CC(N)=O)NC1=O)C(C)(C)C)[C@@H](C)O [compound 315, Ac-W-T-(Tbg)-C(3)-N-N-(2Nal)-Lys(DOTA)-D-C(3)-W-P-CONH2] (Ac-WT[Tle]CNN[2Nal]K(DOTA)DCWP-NH2; disulfide 4-10)	C (“C” represents 0 < % IA/g ≤ 10 in)	A (“A” represents 0 < % IA/g ≤ 5 in tumor)	C (% >50)	< 1	A (% s ≤25)	B (25 <% ≤50)	B (25 <% ≤50)	
CC(=O)N[C@@H](Cc1c[nH]c2ccccc12)C(=O)N[C@H](C(=O)N[C@H](C(=O)N[C@H]1CSSC[C@@H](C(=O)N[C@@H](Cc2c[nH]c3ccccc23)C(=O)N2CCC[C@H]2C(N)=O)NC(=O)[C@H](CC(=O)O)NC(=O)[C@H](CCCCNC(=O)CN2CCN(CC(=O)O)CCN(CC(=O)O)CCN(CC(=O)O)CC2)NC(=O)[C@H](Cc2ccc3ccccc3c2)NC(=O)[C@H](CC(N)=O)NC(=O)[C@H](CC(N)=O)NC1=O)C1CCCCC1)[C@@H](C)O [compound 318, Ac-W-T-(Chg)-C(3)-N-N-(2Nal)-Lys(DOTA)-D-C(3)-W-P-CONH2] (Ac-WT[Chg]CNN[2Nal]K(DOTA)DCWP-NH2; disulfide 4-10)	D (“D” represents % IA/g > 10 in kidney)	A (“A” represents 0 < % IA/g ≤ 5 in tumor)	C (% >50)	< 1	A (% s ≤25)	B (25 <% ≤50)	C (% >50)	
Ac-WT[Ile(3-Me)]CNN[2Nal]K(DOTA)DCWP-NH2 (disulfide 4-10) [Cpd No. 321]								≤ 25
